# Results published in US9296684B2, “Allyl 2-cyanoacrylate prepolymer, preparation method thereof, and bioadhesive composition comprising the prepolymer” (UNIVERSITY-INDUSTRY COOPERATION GROUP OF KYUNG HEE …, priority 2011, dated 2016).
# Test: Change of viscosity according to time for heating 2-cyanoacrylate prepolymer
# Type: physicochemical
# Conditions: heated at 150° C., FIG. 1
# Method: 10 ml of an allyl 2-cyanoacrylate was added to a glass test tube and then sealed in a vacuum state. The sealed glass test tube was put in an oil bath of 150° C. to heat it for 5, 10, 20, 30, 40, 50, 60, and 70 minutes. The heated cyanoacrylate per each given period of time was cooled at room temperature and then the change in viscosity was observed.
# An ethyl 2-cyanoacrylate was heated; then the heated cyanoacrylate per each given period of time was cooled at room temperature, and then the change in viscosity was observed, by using an identical method as in Example 1 described above, with the exception that ethyl 2-cyanoacrylate was used instead of allyl 2-cyanoacrylate.
# The results of investigating the change in viscosity according to time of heating the 2-cyanoacrylate prepolymer in Example 1 and Comparative Example 1 are shown in FIG. 1. Furthermore, the values of viscosity according to time of heating the 2-cyanoacrylate prepolymer in Example 1 are shown in the following Table 1.
smiles,measurement,value
C=C(C#N)C(=O)OCC [ethyl 2-cyanoacrylate],change in viscosity with greater heating time,no increase in the viscosity
